Laboratory results taken from patent publication US11471458B2, “Diacylglycerol acyl transferase 2 inhibitor” (Pfizer Inc., priority 2019, dated 2022).
≈ marks a conversion by molar mass, not a printed value. Where a name gives a salt, the structure may show the parent alone.

How the values were obtained:
[1] = Thermodynamic solubility in various biorelevant media; format: physicochemical; details: PBS, pH 6.8; crystalline solid
Method: The solubility of active pharmaceutical ingredients is an important characteristic in determining biological performance and ease of formulation during drug development, with high solubility being preferred (Klein, S. 2010, The AAPS Journal, 12, 397-406; Di, L., et al 2012, Drug Disc. Today, 17. 486-495). A test sample of crystalline solid (˜7 mg) was combined in a vial with 1 mL of the relevant buffer solution and the mixture vortexed to combine. If the solid dissolved completely, additional solid was added with vortexing until a saturated solution was obtained. The saturated solution/solid mixture was capped and subjected to temperature cycling as follows: 1 min at 25° C., 8 h at 40° C., 5 h at 15° C. and 12 h at 25° C. The mixture was filtered in a centrifugal filtration device (0.22 μm PVDF filter, MilliporeSigma, Milwaukee, Wis.) at 13,000 rpm and the concentration of the test compound in the filtrate was determined by HPLC/UPLC with reference to a three point standard curve. Phosphate buffered saline (PBS, pH 6.8, 50 mM phosphate buffer, 250 mM NaCl). Simulated gastric fluid (SGN pH 1.2, USP recipe). Fasted state simulated intestinal fluid (FaSSIF, 3 mM sodium taurocholate, 0.75 mM phospholipid from soybean lecithin, 50 mM phosphate buffer, ionic strength adjusted to 250 mM with NaCl, pH 6.8) and fed state simulated intestinal fluid (FeSSIF, 15 mM sodium taurocholate, 3.75 mM phospholipid from soybean lecithin, 144 mM acetic acid, 50 mM phosphate buffer, ionic strength adjusted to 250 mM with NaCl, pH 6.8).

[2] = test system: Western diet fed Sprague-Dawley rats; experiment: Rat western diet model: in vivo effects on plasma and hepatic triglyceride levels; details: compared with chow-fed vehicle animals
From the text: The rat western diet model was utilized to assess the effects of DGAT2 inhibitor treatment on plasma triglyceride production and hepatic triglyceride content in vivo. Male Sprague-Dawley rats were housed under standard laboratory conditions on a 12-hour light, 12-hour dark cycle (lights on at 06:00). Two weeks prior to study start animals were placed on a high-fat, high sucrose, high-cholesterol diet (D12079b, provided by Research Diets, New Brunswick, N.J.). This diet provides ˜43% of kilocalories from carbohydrate and ˜41% of kilocalories from fat. Example 4 was administered orally as a solution (10 mL/kg dosing volume) in 0.5% methylcellulose in deionized water, pH 7.0-7.5 (methylcellulose was obtained from Sigma-Aldrich, St. Louis, Mo.). […] Plasma TG levels were determined using a Roche Hitachi Chemistry analyzer according to the manufacturer's instructions (Roche Diagnostics Corporation, Indianapolis, Ind.) and data was analyzed using GraphPad Prism (GraphPad Software, Inc., La Jolla, Calif.). […] The triglyceride assay was performed through absorbance and reported as milligrams per deciliter. […]
FIG. 4 plots the multiple dose effects of Example 4 on Plasma Triglyceride in Western Diet Fed Sprague-Dawley Rats where plasma triglyceride levels were determined from blood drawn from the lateral tail vein 2-hours following the final dose of Example 4. […]

human DGAT2 (hDGAT2) = human DGAT2 (hDGAT2) (Homo sapiens (Human), UniProt Q96PD7); experiment: In vitro DGAT2 assay, determination of IC50 values for DGAT2 inhibitors; format: biochemical; details: hDGAT2 membrane fraction; geometric mean
human DGAT2 (hDGAT2), sequence (Q96PD7 whole entry): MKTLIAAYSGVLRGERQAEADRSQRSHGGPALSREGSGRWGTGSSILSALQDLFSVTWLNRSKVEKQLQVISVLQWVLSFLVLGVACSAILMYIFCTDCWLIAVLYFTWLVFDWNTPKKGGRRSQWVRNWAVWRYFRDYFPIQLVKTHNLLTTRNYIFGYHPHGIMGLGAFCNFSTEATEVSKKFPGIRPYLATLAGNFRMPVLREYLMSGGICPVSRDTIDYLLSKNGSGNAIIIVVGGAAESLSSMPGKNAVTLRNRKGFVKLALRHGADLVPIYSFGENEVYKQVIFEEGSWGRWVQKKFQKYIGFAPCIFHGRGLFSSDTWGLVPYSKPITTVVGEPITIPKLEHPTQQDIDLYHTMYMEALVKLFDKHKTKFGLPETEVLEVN
Method: Recombinant baculovirus for the FLAG-tagged hDGAT2 was generated in SF9 insect cells using Bac-to-Bac baculovirus expression system (Invitrogen) according to the manufacturer's protocol. For the expression of hDGAT2, SF9 cells (20 L) grown in Sf900II media were infected with hDGAT2 baculovirus at a multiplicity of infection of 1 in a Wave Bioreactor System 20/50P wave bag (GE Healthcare). After 40 hours of infection, the cells were then harvested by centrifugation at 5,000×g. The cell pellets were washed by resuspending in phosphate buffered saline (PBS) and collected by centrifugation at 5,000×g. The cell paste was flash frozen in liquid N2 and stored at −80° C. until needed. All operations below were at 4° C. unless otherwise noted. The cells were resuspended in lysis buffer (50 mM Tris-HCl, pH 8.0, 250 mM sucrose) including 1 mM ethylenediaminetetraacetic acid (EDTA) and the complete protease inhibitor cocktail (Roche Diagnostics) at a ratio of 3 mL buffer per 1 g cell paste. The cells were lysed by dounce homogenizer. The cell debris was removed by centrifugation at 1,000×g for 20 min, and the supernatant was centrifuged at 100,000×g for 1 hour. The resulting pellet was rinsed three times by filling ultracentrifuge tubes to the top with ice cold PBS before decanting. The washed pellet was resuspended with gentle stirring for 1 hour in lysis buffer containing 8 mM 3-[(3-cholamidopropyl)dimethylammonio]-1-propanesulfonate (CHAPS) at a ratio of 1 mL buffer per 1 g of original cell paste and centrifuged again at 100,000×g for 1 hour. The resulting supernatant was aliquotted, flash frozen in liquid N2, and stored at −80° C. until use.
To 1 μL of compounds dissolved in 100% DMSO and spotted at the bottom of each well, 5 μL of 0.04% bovine serum albumin (BSA) (fatty acid free, Sigma Aldrich) was added and the mixture was incubated at room temperature for 15 minutes. hDGAT2 membrane fractions were diluted in 100 mM Hepes-NaOH, pH 7.4, 20 mM MgCl2 containing 200 nM methyl arachidonyl fluorophosphonate (Cayman Chemical; dried from ethyl acetate stock solution under argon gas and dissolved in DMSO as 5 mM stock). 10 μL of this enzyme working solution was added to the plates and incubation continued for 2 hours at room temperature. […] Plates were centrifuged at 2,000×g for 1 minute in an Allegra 6R Centrifuge (Beckman Coulter) and then were sealed again with fresh covers before reading in a 1450 Microbeta Wallac Trilux Scintillation Counter (Perkin Elmer). DGAT2 activity was measured by quantifying the generated product [^14C]tridecanoylglycerol in the upper organic phase. […]

[3] = High throughput determination of intrinsic clearance in human hepatocytes; format: in vitro ADME; details: human, pooled cryopreserved human hepatocytes (10 donors), high throughput human hepatocyte assay; 0.5 million cells/mL, 1 μM test compound, 37° C.; mean +/− Std Dev; read-out: CLint (μL/min/10^6 cells) (+/− Std Dev)
Method: The incubation was carried out at 37° C. […] The samples were centrifuged (Eppendorf, Hauppauge, N.Y.) at 3000 rpm for 5 min at 4° C.

[4] = Determination of pKa (capillary electrophoresis, Analiza, Inc.); format: physicochemical; details: mean, read-out: Basic pKa (most basic pKa)
[5] = Intrinsic clearance in human liver microsomes; format: in vitro ADME; details: human, pooled human liver microsomes (50 donors), pH 7.4, human liver microsome assay; 1 μM test compound, 0.806 mg/mL protein, NADPH, pH 7.4, 37° C.; mean +/− STD Dev; read-out: CLint (μL/min/mg) (+/− STD Dev)
Method: The incubations were conducted at 37° C. […] (Sorvall RC 3C Plus, Thermo Scientific, Waltham, Mass.).

[6] = target: DGAT2 in human hepatocytes (Homo sapiens (Human), UniProt Q96PD7); experiment: Determination of IC50 values for DGAT2 inhibitors in human hepatocytes; format: cell-based; details: cryopreserved human hepatocytes, DGAT1 inhibitor present; geometric mean
DGAT2 in human hepatocytes, sequence (Q96PD7 whole entry): as above
Method: For evaluation of the effects of DGAT2 inhibitors in a cell-based setting, cryopreserved human hepatocytes (Lot DOO, Celsis, Baltimore, Md.) were thawed and plated onto type I collagen-coated plates according to the manufacturer's instructions. After 18 hours overnight recovery period, the cells were overlayed with media containing 250 μg/mL Geltrex Basement Membrane Matrix (Thermo Fisher). The following day, media was aspirated and replaced with serum-free Williams Media E (Thermo Fisher) containing 400 μM sodium dodecanoate (Sigma-Aldrich, St. Louis, Mo.) and 2 mM GlutaMAX (Thermo Fisher). […] DGAT2 inhibitors were then added to the desired final concentration. After a 15 minute preincubation, 0.2 μCi [^14C(U)]-glycerol (Perkin Elmer) was added to each well followed by a 3 hour incubation. At this point the media was removed, and the cells lysed via orbital shaking in isopropyl alcohol: tetrahydrofuran (9:1) for 15 minutes prior to centrifugation at 3000 rpm for 10 minutes. Radiolabeled lipids were resolved using a solvent system by thin layer chromatography with the solvent consisting of hexanes:diethyl ether:glacial acetic acid (75:23:2, v/v/v). […] The half maximal inhibitory concentrations (IC50 values) were determined by nonlinear regression analysis of the % inhibition dose response curve using GraphPad Prism (GraphPad Software, Inc., La Jolla, Calif.). […]

With `CCOc1cccnc1Oc1cncc(-c2ncc(C(=O)N[C@@H]3CNC[C@@H](F)C3)cn2)c1` [Example 4, 2-{5-[(3-Ethoxypyridin-2-yl)oxy]pyridin-3-yl}-N-[(3S,5S)-5-fluoropiperidin-3-yl]pyrimidine-5-carboxamide] the Solubility [1] was 580 µg/mL (≈ 1320 µM) and the “circulating triglyceride response, resulting levels” value [2] was “approached those of the chow-fed vehicle animals”.

With `CCOc1cccnc1Oc1cncc(-c2ncc(C(=O)N[C@@H]3CNCC[C@@H]3F)cn2)c1` [Example 3, 2-{5-[(3-Ethoxypyridin-2-yl)oxy]pyridin-3-yl}-N-[(3R,4S)-4-fluoropiperidin-3-yl]pyrimidine-5-carboxamide, bis(trifluoroacetate) Salt] the IC50 (human DGAT2 (hDGAT2)) was 40 nM, the hepatocyte CLint at 1 μM [3] was less than 1.9 µL/min/1e6 cells and the pKa [4] was 8.1. It also gave a microsomal CLint at 1 μM [5] of less than 7 µL/min/mg and an IC50 [6] of 23 nM.
